Measurements reported in patent US20200268779A1, “USE OF SECOISOLARICIRESINOL DIGLUCOSIDES (SDGs) AND RELATED COMPOUNDS FOR PROTECTION AGAINST RADIATION-INDUCED CARDIOVASCULAR DYSFUNCTION” (THE TRUSTEES OF THE UNIVERSITY OF PENNSYLVANIA, priority 2017, published 2020).

Tested on: mice exposed to thoracic radiation
Assay: Thoracic radiation exposure in mice, non-invasive pulse oximetry (MouseOx)
Format: in vivo
Details: male C57/LJ mice, single fraction thoracic radiation, LGM2605 post exposure daily for 3 weeks or daily for 3 months, measured 130-140 days post radiation
Experimental: FIG. 1. Arterial Oxygen saturation (A) and Pulse Distention (B) were measured in living mice (n=5), between 130 and 140 days post single fraction thoracic radiation exposure.
Mice (male, C57/LJ) were exposed to thoracic radiation and evaluated for multiple cardio-pulmonary measurements such as arterial oxygen saturation and pulse distention using non-invasive Pulse Oximetry (MouseOx non-invasive vital signs monitor STARR Life Sciences Corp., Oakmont, Pa.).
Pulse Distention is the amplitude of the cardiac light absorption signals. Pulse Distention is a hemodynamic measurement obtained by the pulse oximetry software, a measure of the local blood flow (carotid arteries) at the sensor location. […] This could indicate that LGM2605 helps reduce downstream effects of inflammation in tissues other than the lung.

## COc1cc(C[C@@H](CO[C@@H]2O[C@H](CO)[C@@H](O)[C@H](O)[C@H]2O)[C@H](CO[C@@H]2O[C@H](CO)[C@@H](O)[C@H](O)[C@H]2O)Cc2ccc(O)c(OC)c2)ccc1O [LGM2605, secoisolariciresinol diglucoside]
Decreased significantly in irradiated controls (FIG. 1B)
  Pulse distention: remained at baseline levels
Vs irradiated controls and vehicle (FIG. 1A)
  Arterial blood oxygenation (arterial oxygen saturation): improved arterial blood oxygenation
